Consider 17 molecules from US6903085B1, “Substituted piperidine compounds useful as modulators of chemokine receptor activity” (AstraZeneca, AB, priority 1999, dated 2005).

Where a name gives a salt, the structure may show the parent alone.

Regarding `COc1cccc(NC(=O)CNC2CCN(Cc3ccc(Cl)c(Cl)c3)CC2)c1` (as salt: hydrochloride) [Example 104, 2-{[1-(3,4-Dichlorobenzyl)-4-piperidinyl]amino}-N-(3-methoxyphenyl)acetamide, dihydrochloride Salt], the melting point was in the range of 274 to 276 °C.
To `COc1ccc(CNC2CCN(Cc3ccc(Cl)c(Cl)c3)CC2)cc1` (as salt: hydrochloride) [Example 107, N-[1-(3,4-Dichlorobenzyl)-4-piperidinyl]-N-(4-methoxybenzyl)amine, dihydrochloride Salt] belongs above 250 °C; to `O=C(CSc1ccc(C(F)(F)F)cn1)NC1CCN(Cc2ccc(Cl)c(Cl)c2)CC1` [Example 94, N-[1-(3,4-Dichlorobenzyl)-4-piperidinyl]-2-{[5-(trifluoromethyl)-2-pyridinyl]sulfanyl}acetamide], 98 °C.
To `Cc1c(CC(=O)NC2CCN(Cc3ccc(Cl)c(Cl)c3)CC2)cnn1-c1ccccc1` [Example 95, N-[1-(3,4-Dichlorobenzyl)-4-piperidinyl]-2-(5-methyl-1-phenyl-1H-pyrazol-4-yl)acetamide] belongs 165 °C.
Next, `O=C(CCCC(=O)c1ccccc1)NC1CCN(Cc2ccc(Cl)c(Cl)c2)CC1` [Example 96, N-[1-(3,4-Dichlorobenzyl)-4-piperidinyl]-5-oxo-5-phenylpentanamide]: 130 °C; `Cc1sc(-c2ccc(Cl)cc2)nc1CC(=O)NC1CCN(Cc2ccc(Cl)c(Cl)c2)CC1` [Example 97, 2-[2-(4-Chlorophenyl)-5-methyl-1,3-thiazol-4-yl]-N-[1-(3,4-dichlorobenzyl)-4-piperidinyl]acetamide]: 170 °C.
As for `O=C(CSc1ccccc1)NC1CCN(Cc2ccc(Cl)c(Cl)c2)CC1` [Example 98], the melting point is 97 to 99 °C.
To `O=C(Cc1ccc(F)cc1)NC1CCN(Cc2ccc(Cl)c(Cl)c2)CC1` [Example 99, N-[1-(3,4-Dichlorobenzyl)-4-piperidinyl]-2-(4-fluorophenyl)acetamide] belongs 144 to 147 °C.
Next, `O=C(Cc1csc(-c2cnccn2)n1)NC1CCN(Cc2ccc(Cl)c(Cl)c2)CC1` [Example 100, N-[1-(3,4-Dichlorobenzyl)-4-piperidinyl]-2-[2-(2-pyrazinyl)-1,3-thiazol-4-yl]acetamide]: 186 to 189 °C.
Molecule `O=C(CSc1ncc(-c2ccccc2)cn1)NC1CCN(Cc2ccc(Cl)c(Cl)c2)CC1` [Example 101, N-[1-(3,4-Dichlorobenzyl)-4-piperidinyl]-2-[(5-phenyl-2-pyrimidinyl)sulfanyl]acetamide] displayed a melting point of 157 °C.
To `O=C(CCc1nc(-c2ccccn2)no1)NC1CCN(Cc2ccc(Cl)c(Cl)c2)CC1` [Example 102, N-[1-(3,4-Dichlorobenzyl)-4-piperidinyl]-3-[3-(2-pyridinyl)-1,2,4-oxadiazol-5-yl]propanamide] belongs 155 °C; to `Clc1ccc(CN2CCC(Nc3nc4ccccc4[nH]3)CC2)cc1Cl` [Example 103, N-[1-(3,4-Dichlorobenzyl)-4-piperidinyl]-1H-benzimidazol-2-amine], 125 °C; to `O=C(Nc1ccc(Cl)c(Cl)c1)NC1CCN(Cc2ccc(Cl)c(Cl)c2)CC1` [Example 105, N-[1-(3,4-Dichlorobenzyl)-4-piperidinyl]-N′-(3,4-dichlorophenyl)urea], 189 to 190 °C.
For `COc1cccc(NC(=O)NC2CCN(Cc3ccc(Cl)c(Cl)c3)CC2)c1` [Example 106, N-[1-(3,4-Dichlorobenzyyl)-4-piperidinyl]-N′-(3-methoxyphenyl)urea], the melting point is 178 to 179 °C.
To `O=C(Cc1nc(-c2ccccn2)no1)NC1CCN(Cc2ccc(Cl)c(Cl)c2)CC1` [Example 359, N-[1-(3,4-Dichlorobenzyl)-4-piperidinyl]-2-[3-(2-pyridinyl)-1,2,4-oxadiazol-5-yl]acetamide] belongs 145 °C; to `O=C(CCc1nc(-c2ccccn2)no1)NC1CCN(Cc2ccc(F)c(Cl)c2)CC1` [Example 362, N-[1-(3-Chloro-4-fluorobenzyl)-4-piperidinyl]-3-[3-(2-pyridinyl)-1,2,4-oxadiazol-5-yl]propanamide], 150 °C; to `O=C(CCc1nc(-c2ccccn2)no1)NC1CCN(Cc2ccc(Cl)c(F)c2)CC1` [Example 363, N-[1-(4-Chloro-3-fluorobenzyl)-4-piperidinyl]-3-[3-(2-pyridinyl)-1,2,4-oxadiazol-5-yl]propanamide], 132 °C.
